Laboratory results taken from patent US20080078408A1, “URETHRAL CONDOMS AND LIQUID FEMALE CONDOMS” (priority 2005, published 2008).

Legend:
sperms = experiment: Spermicidal test: semen on a slide glass mixed with a drop of liquid, observed with an optical microscope; format: cell-based
Source text: The present inventor discovered a surprising fact for the first time that distilled water is an excellent spermicide.
EXPERIMENT 1: The fact that distilled water is an excellent spermicide was proven experimentally as follows: (1) One drop of semen was spread on a slide glass with a cotton swab and active movements of sperms were confirmed. (2) Upon mixing with a drop of distilled water, 100% of sperms stood still immediately. […] All sperms might be dead by explosive expansion of the sperm cell. While not wishing to be bound by any particular theory, the inventor believes that this is due to a lot of water smeared into the cell due to the difference in osmotic pressure between the cell and distilled water.
(3) Upon decreasing the viscosity by adding several drops of saline solution, the sperms regained their original activity.
EXPERIMENT 4: The fact that polymer solutions made from distilled water and water-soluble polymers exterminated sperms was verified experimentally as follows: (1) One drop of semen was spread on a slide glass with a cotton swab and active movements of sperms were confirmed. (2) Upon mixing with a drop of water-soluble polymer solution, all sperms came to a standstill without any movement in their heads or tails. […]

[1] = Physical blocking wall test: pigments and dye rubbed on coated, incised swine vaginal segments, then rinsed and scrubbed
Source text: EXPERIMENT 6: Two pigments whose particle size distributions correspond to sizes of STD-causing germs including HIV (diameter=125 nm) were chosen. The blue pigment (PIG-1) had the particle size distribution of 100-20,000 nm, while the violet pigment (PIG-2) had the particle size distribution of 30-500 nm. For the purpose of comparison, a blue dye ink (DYE) (molecular diameter=2.7 nm) was used as well. Instead of the human vagina, the swine vagina was used. […] Then, the vaginal segments in the left column were wetted with water, while those in the second, the third, the fourth and the fifth column were applied with corn syrup (SYRUP, 55% maltose), a composition made from polyvinyl alcohol (PVA-gel), a composition made from sodium carboxymethyl cellulose (SCMC-gel) and a composition made from hydroxyethyl cellulose (HEC-gel), respectively, as shown in FIG. 2B. After that, the blue pigment (PIG-1) was applied on the vaginal segments in the upper row, while the violet pigment (PIG-2) and the blue dye ink (DYE) were applied on the vaginal segments in the middle and the lower row, respectively, as shown in FIG. 2C. The pigments and the dye ink applied on the vaginal segments were rubbed 50 times violently with the index finger being pressed in an attempt to simulate the frictional movement of coitus. Thereafter that, they were scrubbed off and cleansed out with the vaginal scrubbing sponge of the present invention as shown in FIG. 6.

Structure (SMILES) | sperm activity upon later addition of saline solution (sperms; saline solution added after mixing with the liquid) | sperms stood still immediately upon mixing (sperms; semen on slide glass mixed with drop(s) of the liquid) [%] | pigments left on incisions ([1]; incisions, after rinsing and scrubbing) | blue dye ink (molecular diameter 2.7 nm) left after being rinsed and scrubbed ([1]; intact vaginal surfaces and incisions) | pigments (PIG-1, PIG-2; 30-20,000 nm) left on vaginal segments after rinsing ([1]; intact vaginal surfaces and incisions, rubbed 50 times, rinsed with running water, then scrubbed)
O [distilled water] | failed to show any activity | 100 | – | – | –
O [water] | – | – | remained heavily | remained heavily | still remained
